Experimental data published in patent publication US7511144B2, “Reverse hydroxamic acid derivatives” (Kaken Pharmaceutical Co., Ltd., priority 2001, dated 2009).

Tests used:
Type in all cases: biochemical
TACE = target: T1, TACE (Homo sapiens, UniProt P78536); experiment: TACE inhibition experiment (in vitro)
T1 construct: made in house; host or cells: mammalian cells or insect cells

Human MMP8 = target: T2, Human MMP8 (Homo sapiens, UniProt P22894); experiment: MMP8 inhibition experiment; conditions: concentration required for 50% inhibition of enzyme activity; read-out: IC50 value MMP-8
T2 construct: purchased Calbiochem 444229
Method: MMP inhibition experiment may be carried out using a fluorescent synthetic substrate according to, for example, the methods of Bickett et al. (D. Mark Bickett et al., Anal. Biochem., 1993, 212, 58-64) and Nagase et al. (H. Nagase et al., J. Biol. Chem., 1994, 269, 20952-20957). The methods of inhibition experiments carried out for various MMPs are described below.
Human MMP8 (Calbiochem #444229) in amount of 90 μL (30 ng) was activated by mixing with 10 μL of 10 mM APMA, followed by reaction for 1 hour at 37° C. This enzyme solution in amount of 10 μL was diluted to 90 μL with the assay buffer A, which was added to 90 μL of […] fluorescent substrate (MOCAc-Pro-Leu-Gly-Leu-A2pr(Dnp)-Ala-Arg-NH2, Peptide Institute, Inc., #3163-v) prepared in the assay buffer B, followed by reaction for 5 hours at 37° C.

Human MMP1 = target: T3, Human MMP1 (Homo sapiens, UniProt P03956); experiment: MMP1 inhibition experiment; conditions: read-out: IC50 value MMP-1
T3 construct: purchased Calbiochem 444208
T3 sequence (P03956 100-469): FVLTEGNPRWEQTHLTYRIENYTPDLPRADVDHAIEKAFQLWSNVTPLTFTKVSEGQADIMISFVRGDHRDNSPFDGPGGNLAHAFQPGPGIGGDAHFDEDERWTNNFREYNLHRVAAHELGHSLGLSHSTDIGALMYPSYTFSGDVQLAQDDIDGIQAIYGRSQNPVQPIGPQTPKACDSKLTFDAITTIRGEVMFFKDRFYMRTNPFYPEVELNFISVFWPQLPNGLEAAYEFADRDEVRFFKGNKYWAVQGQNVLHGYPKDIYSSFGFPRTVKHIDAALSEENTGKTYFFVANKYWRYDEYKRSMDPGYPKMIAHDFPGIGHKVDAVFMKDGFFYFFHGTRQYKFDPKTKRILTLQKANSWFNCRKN
Method: This enzyme solution in amount of 10 μL was diluted to 90 μL with the assay buffer A, which was added to 90 μL of 20 μM fluorescent substrate (Dnp-Pro-Cha(β-cyclohexylalanyl)-Gly-Cys(Me)-His-Ala-Lys(Nma)-NH2) prepared in the assay buffer B, followed by reaction for 5 hours at 37° C.

Human MMP17 = target: T4, Human MMP17 (Homo sapiens, UniProt Q9ULZ9); experiment: MMP17 inhibition test; conditions: concentration required for 50% inhibition of enzyme activity; read-out: IC50 value MMP-17
T4 construct: purchased Calbiochem 475940
T4 sequence (Q9ULZ9 126-300 limits assumed): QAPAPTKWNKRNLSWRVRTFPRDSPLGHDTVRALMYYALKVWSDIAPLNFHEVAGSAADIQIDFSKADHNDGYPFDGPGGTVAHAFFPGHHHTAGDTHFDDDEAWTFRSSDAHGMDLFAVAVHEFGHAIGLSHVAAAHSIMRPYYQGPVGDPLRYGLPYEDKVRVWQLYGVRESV

Human MMP9 = target: T5, Human MMP9 (Homo sapiens, UniProt P14780); experiment: MMP9 inhibition experiment; conditions: read-out: IC50 value MMP-9
T5 construct: purchased Calbiochem 444231
Method: This enzyme solution in amount of 1 μL was diluted to 90 μL with the assay buffer A, which was added to 90 μL of 20 μM fluorescent substrate (Dnp-Pro-Cha-Gly-Cys(Me)-His-Ala-Lys(Nma)-NH2) prepared in the assay buffer B, followed by reaction for 4 hours at 37° C.

Human MMP2 = target: T6, Human MMP2 (Homo sapiens, UniProt P08253); experiment: MMP2 inhibition experiment; conditions: concentration required for 50% inhibition of enzyme activity; read-out: IC50 value MMP-2
T6 construct: purchased Calbiochem 444213
T6 sequence (P08253 110-660): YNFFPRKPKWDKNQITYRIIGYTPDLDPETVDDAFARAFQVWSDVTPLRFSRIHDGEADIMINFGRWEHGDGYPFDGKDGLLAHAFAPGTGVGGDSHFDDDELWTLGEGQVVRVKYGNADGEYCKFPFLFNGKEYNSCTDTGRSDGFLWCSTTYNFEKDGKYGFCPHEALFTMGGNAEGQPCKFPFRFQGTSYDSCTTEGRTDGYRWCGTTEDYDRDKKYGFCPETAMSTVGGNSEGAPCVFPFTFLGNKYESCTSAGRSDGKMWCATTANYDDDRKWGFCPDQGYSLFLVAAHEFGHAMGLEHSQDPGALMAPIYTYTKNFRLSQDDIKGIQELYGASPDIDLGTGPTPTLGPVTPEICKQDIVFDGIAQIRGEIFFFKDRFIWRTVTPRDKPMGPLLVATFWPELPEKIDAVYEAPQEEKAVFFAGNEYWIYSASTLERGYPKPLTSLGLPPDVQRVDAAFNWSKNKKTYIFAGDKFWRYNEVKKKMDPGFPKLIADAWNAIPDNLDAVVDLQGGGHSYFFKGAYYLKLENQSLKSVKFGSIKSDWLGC
Method: This enzyme solution in amount of 10 μL was diluted to 90 μL with the assay buffer A, which was added to 90 μL of 20 μM fluorescent substrate (MOCAc((7-methoxycoumarin-4-yl)acetyl)-Pro-Leu-Gly-Leu-A2pr(Dnp)-Ala-Arg-NH2, Peptide Institute, Inc., #3163-v) prepared in the assay buffer B, followed by reaction for 5 hours at 37° C.

Human MMP13 = target: T7, Human MMP13 (Homo sapiens, UniProt P45452); experiment: MMP13 inhibition experiment; conditions: concentration required for 50% inhibition of enzyme activity; read-out: IC50 value MMP-13
T7 construct: purchased Chemicon CC068
Method: Human MMP13 (Chemicon #CC068) in amount of 90 μL (200 ng) was activated by mixing with 10 μL of 10 mM APMA, followed by reaction for 1 hour at 37° C. This enzyme solution in amount of 0.6 μL was diluted to 90 μL with the assay buffer A, which was added to 90 μL of 20 μM fluorescent substrate (Dnp-Pro-Cha-Gly-Cys(Me)-His-Ala-Lys(Nma)-NH2) prepared in the assay buffer B, followed by reaction for 4 hours at 37° C.

Human MMP14 = target: T8, Human MMP14 (Homo sapiens, UniProt P50281); experiment: MMP14 inhibition experiment; conditions: concentration required for 50% inhibition of enzyme activity; read-out: IC50 value MMP-14
T8 construct: purchased Biogenesis or Calbiochem 5980-1461 or 475935
Procedure, shortened: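 Fluorescence assay: substrate Dnp-Pro-Cha-Gly-Cys(Me)-His-Ala-Lys(Nma)-NH2 (20 μM before equal-volume mixing) incubated at 37° C for 5 hours with 4 ng human MMP14.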

Human MMP3 = target: T9, Human MMP3 (Homo sapiens, UniProt P08254); experiment: MMP3 inhibition experiment; conditions: concentration required for 50% inhibition of enzyme activity; read-out: IC50 value MMP-3
T9 construct: purchased Calbiochem 444217
Procedure, shortened: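 Fluorescence-quenched substrate NFF-3 (MOCAc/Dnp peptide, 20 μM as prepared) cleaved by 5 ng human MMP3 over 5 hours at 37° C, with inhibition measured from substrate fluorescence.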

T1 sequence (P78536 215-824): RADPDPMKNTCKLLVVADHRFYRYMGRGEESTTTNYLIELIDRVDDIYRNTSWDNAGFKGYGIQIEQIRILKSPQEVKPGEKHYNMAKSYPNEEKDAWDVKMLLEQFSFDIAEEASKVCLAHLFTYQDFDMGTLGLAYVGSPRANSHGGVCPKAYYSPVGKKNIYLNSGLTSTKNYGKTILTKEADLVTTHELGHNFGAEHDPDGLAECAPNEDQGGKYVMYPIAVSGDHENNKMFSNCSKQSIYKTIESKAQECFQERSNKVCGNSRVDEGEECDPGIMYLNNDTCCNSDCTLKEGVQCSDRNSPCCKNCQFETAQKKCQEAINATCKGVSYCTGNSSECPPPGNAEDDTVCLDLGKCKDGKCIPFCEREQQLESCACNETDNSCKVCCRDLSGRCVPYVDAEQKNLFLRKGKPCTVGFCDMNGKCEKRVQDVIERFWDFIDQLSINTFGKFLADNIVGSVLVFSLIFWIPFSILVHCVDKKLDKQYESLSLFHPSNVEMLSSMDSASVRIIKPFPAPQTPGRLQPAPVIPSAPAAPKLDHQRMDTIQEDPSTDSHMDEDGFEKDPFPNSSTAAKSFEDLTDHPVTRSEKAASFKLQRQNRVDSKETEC
T2 sequence (P22894 101-467): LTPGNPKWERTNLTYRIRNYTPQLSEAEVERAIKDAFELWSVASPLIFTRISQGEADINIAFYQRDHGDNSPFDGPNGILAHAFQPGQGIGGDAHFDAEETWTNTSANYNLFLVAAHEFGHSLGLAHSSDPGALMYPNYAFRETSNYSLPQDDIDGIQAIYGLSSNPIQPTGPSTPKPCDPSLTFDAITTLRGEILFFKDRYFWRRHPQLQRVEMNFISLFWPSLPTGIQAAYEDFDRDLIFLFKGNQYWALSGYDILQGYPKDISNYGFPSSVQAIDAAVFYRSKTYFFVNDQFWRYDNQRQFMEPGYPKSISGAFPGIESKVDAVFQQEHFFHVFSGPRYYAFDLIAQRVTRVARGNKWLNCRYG
T5 sequence (P14780 107-707 limits assumed): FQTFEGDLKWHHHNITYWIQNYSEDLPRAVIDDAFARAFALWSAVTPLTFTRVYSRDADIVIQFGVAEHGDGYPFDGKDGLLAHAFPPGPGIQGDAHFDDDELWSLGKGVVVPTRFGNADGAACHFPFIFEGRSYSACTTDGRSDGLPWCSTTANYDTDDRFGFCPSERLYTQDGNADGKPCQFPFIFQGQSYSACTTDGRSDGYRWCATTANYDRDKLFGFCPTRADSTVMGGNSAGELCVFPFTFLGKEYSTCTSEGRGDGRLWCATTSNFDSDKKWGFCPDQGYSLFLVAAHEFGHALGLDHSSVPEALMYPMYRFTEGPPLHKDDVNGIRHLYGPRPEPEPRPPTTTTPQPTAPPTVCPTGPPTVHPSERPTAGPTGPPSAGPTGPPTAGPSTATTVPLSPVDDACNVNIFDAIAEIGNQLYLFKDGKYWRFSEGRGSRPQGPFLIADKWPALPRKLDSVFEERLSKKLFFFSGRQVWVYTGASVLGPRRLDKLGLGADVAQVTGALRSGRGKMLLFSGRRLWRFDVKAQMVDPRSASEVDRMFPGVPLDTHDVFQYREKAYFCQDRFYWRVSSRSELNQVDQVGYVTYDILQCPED
T9 sequence (P08254 100-272 limits assumed): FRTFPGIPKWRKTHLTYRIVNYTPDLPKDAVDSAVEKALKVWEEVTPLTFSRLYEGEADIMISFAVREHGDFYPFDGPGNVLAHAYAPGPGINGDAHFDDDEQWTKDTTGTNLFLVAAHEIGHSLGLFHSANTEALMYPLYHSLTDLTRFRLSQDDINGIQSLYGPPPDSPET

Row | Structure (SMILES) | IC50 (TACE) [µM] | IC50 (Human MMP8) [µM] | IC50 (Human MMP1) [µM] | IC50 (Human MMP17) [µM] | IC50 (Human MMP9) [µM] | IC50 (Human MMP2) [µM] | IC50 (Human MMP13) [µM] | IC50 (Human MMP14) [µM] | IC50 (Human MMP3) [µM]
1 | Cc1cc(COc2ccc(S(=O)(=O)CC([C@H]3CSC(=O)N3C)N(O)C=O)cc2)c2ccccc2n1 (stereo partly drawn) [Example I-136] | 0.0065 | 13 | 48 | 0.62 | 50 | 26 | 26 | 50 | 2
2 | CCC(CC)C(=O)N1CCC(=CC(CS(=O)(=O)c2ccc(OCc3cc(C)nc4ccccc34)cc2)N(O)C=O)C(C)C1 (stereo not drawn) [Example I-63] | 0.002 | 60 | 64 | 2.2 | 75 | 30 | 32 | 65 | 2.4
3 | CCC(CC)C(=O)N1CCCC(C(CS(=O)(=O)c2ccc(OCc3cc(C)nc4ccccc34)cc2)N(O)C=O)C1 (stereo not drawn) [Example I-130] | 0.014 | 7 | 50 | 0.11 | 46 | 2.6 | 2.7 | 19 | 0.24
4 | CCC(CC)C(=O)N1CCC(CC(CS(=O)(=O)c2ccc(OCc3cc(C)nc4ccccc34)cc2)N(O)C=O)CC1 (stereo not drawn) [Example I-51] | 0.01 | 7.6 | 60 | 0.4 | 37 | 3.2 | 5.8 | 40 | 0.35
5 | O=CN(O)C(C=C1CCC2(CC1)OCCO2)CS(=O)(=O)c1ccc(OCc2ccc3ccccc3n2)cc1 (stereo not drawn) [Example I-83] | 2.5 | > 100 | > 100 | 36 | 53 | 7 | 23 | 55 | 37
6 | Cc1cc(COc2ccc(S(=O)(=O)CC(CCc3cccnc3)N(O)C=O)cc2)c2ccccc2n1 (stereo not drawn) [Example I-56] | 0.004 | 7.2 | 70 | 1.2 | 55 | 3.1 | 6.4 | 42 | 1
7 | Cc1cc(COc2ccc(S(=O)(=O)CC(C3CCCN(C(=O)OC(C)(C)C)C3)N(O)C=O)cc2)c2ccccc2n1 (stereo not drawn) [Example I-72] | 0.024 | 10 | 90 | 0.28 | 64 | 2 | 1.4 | 48 | 0.7
8 | CC(=C1CCOCC1)C(CS(=O)(=O)c1ccc(OCc2cc(C)nc3ccccc23)cc1)N(O)C=O (stereo not drawn) [Example I-15] | 0.0055 | 60 | > 100 | 3.5 | > 100 | 38 | 30 | 70 | 9
9 | Cc1ccc(CCCC(CS(=O)(=O)c2ccc(OCc3cc(C)nc4ccccc34)cc2)N(O)C=O)cc1 (stereo not drawn) [Example I-37] | 0.17 | 25 | 57 | 1.1 | 22 | 2.7 | 6 | 33 | 2
